Structures can show the parent of a compound that is named as a salt.
| SMILES | melting point |
| --- | --- |
| COCCN1C(=O)N(c2ccccc2Cl)Cc2cnc(NC(C)C)nc21 (as salt: hydrochloride) [Example 2b, 3-(2-chloro-phenyl)-1-(2-methoxy-ethyl)-7-isopropylamino-3,4-dihydropyrimido[4,5-d]pyrimidin-2(1H)-one] | 126 to 131.6 °C |
| CCOC(=O)CN1C(=O)N(c2ccccc2Cl)Cc2cnc(NC(C)C)nc21 [Example 1d, 3-(2-chloro-phenyl)-1-ethoxycarbonylmethyl-7-isopropylamino-3,4-dihydropyrimido[4,5-d]pyrimidin-2(1H)-one] | 188.8 to 191.4 °C |
| CC(C)Nc1ncc2c(n1)N(CC(=O)O)C(=O)N(c1ccccc1Cl)C2 [Example 1e, 3-(2-chloro-phenyl)-1-carboxymethyl-7-isopropylamino-3,4-dihydropyrimido[4,5-d]pyrimidin-2(1H)-one] | 172 to 188 °C |
